{"source": "patent US6867186B2", "about": "“Cell-permeable protein inhibitors of calpain” (New England Medical Center Hospital, priority 1997, dated 2005)", "tested_on": "platelet rich plasma (PRP)", "assay": "Platelet disk-to-sphere shape change after cold storage (ESC assay)", "assay_type": "cell-based", "set-up": "cold storage of PRP, extent of shape change (ESC): dose or concentration left out as unconfirmed", "experimental": "Disk-to-sphere shape change was then assayed using the extent of shape change (ESC) assay (Holme et al., Transfusion 38:31-40, 1998). Briefly, samples of stored PRP were treated to induce disk-to-sphere shape change by cold storage and the addition of EDTA (to prevent aggregation). ADP was then added as a stimulus to measure ESC, and shape change was measured by determining light transmission through the sample. If the initial storage conditions caused considerable disk-to-sphere shape change, there would be little additional shape change upon addition of EDTA and ADP. Conversely, if the initial storage conditions caused little disk-to-sphere shape change, there would be considerable additional shape change upon addition of EDTA and ADP. The results of three experiments in which 24 hour storage of platelets at 4° C. was tested, in the presence and absence of calpastat, are shown in FIG. 12. The bracket labelled “fresh CDP” indicates the ESC that can be expected for fresh PRP in CPD, and the bracket marked “cold EDTA-treated PRP” indicates the ESC that can be expected for PRP subjected to cold storage in EDTA.\nThe day O control is an assay performed on fresh PRP with no cold storage in standard buffer."}
{"substance": "H-AAVALLPAVLLALLAPEKLGERDDTIPPEYRELLEKKTGV-OH [Calpastat]", "values": [{"measurement": "cold storage of PRP, extent of shape change (ESC)", "setting": "about 24 hours at 4° C., compared to EDTA", "value": "significantly improved cold storage"}, {"measurement": "protection against disk-to-sphere shape change", "setting": "five days at 4° C.", "value": "considerable protection"}]}
